This note sets out measurements from patent publication US11485742B2, “2-azaspiro[3.4]octane derivatives as M4 agonists” (NOVARTIS AG, priority 2019, dated 2022).

The target of assay [1] is T1, human cloned CHRM4 receptor (Homo sapiens, UniProt P08173).
T1 construct: expressed in transfected cells; host or cells: CHO-K1 (M4_CHO)
T1 sequence (P08173 1-479): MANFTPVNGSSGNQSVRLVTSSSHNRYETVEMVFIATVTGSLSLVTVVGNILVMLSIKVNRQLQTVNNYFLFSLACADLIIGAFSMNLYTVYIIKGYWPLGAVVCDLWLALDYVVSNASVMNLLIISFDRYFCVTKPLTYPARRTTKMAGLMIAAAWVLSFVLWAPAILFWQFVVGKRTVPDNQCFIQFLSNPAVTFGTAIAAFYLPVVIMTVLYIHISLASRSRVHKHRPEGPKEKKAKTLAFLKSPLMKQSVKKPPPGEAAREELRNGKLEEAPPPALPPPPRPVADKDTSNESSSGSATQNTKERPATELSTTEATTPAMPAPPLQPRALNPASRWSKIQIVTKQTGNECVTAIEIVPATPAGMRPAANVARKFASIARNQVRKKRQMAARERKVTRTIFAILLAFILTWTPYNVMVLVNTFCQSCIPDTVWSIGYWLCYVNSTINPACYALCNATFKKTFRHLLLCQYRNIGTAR
Kind of assay: CHRM4 Ca++ Flux Assay (M4_CHO cells, agonist mode). Type of assay: cell-based. To be noted: for M4 FDSS PA % / Emax: Percent Activity (PA); for EC50: geometric mean if tested more than once, read-out: M4 FDSS EC50; for Emax: read-out: M4 FDSS PA %. The procedure:
(§1) The above examples were characterized by measuring the intracellular mobilization of Ca^++ ions caused by signaling events mediated by the receptor. The Intra-cellular Calcium flux levels were captured by the highly sensitive Ca^++ indicator, Calcium Assay Kit (BD Biosciences; Catalog Number 640178. The fluorescent activity from all receptors were monitored by the fluorescent imager, FDSS 7000EX (Hamamatsu) over a span of 3 minutes. The change in Calcium flux was readily captured upon activation with the muscarinic orthosteric agonist, Carbachol.
(§2) CHO-K1 cells stably expressing the human cloned CHRM4 receptor (M4_CHO cells) were grown and maintained in a monolayer culture with F12/HAM (Life Technologies) supplemented with 10% Fetal Bovine Serum, 1X Pen-Strep, and 0.4 mg/mL Geneticin in a humidified atmosphere (5% CO2) at 37° C. The cultures were grown to 80-90% confluency in T150 flasks (Corning) and washed with 1×DPBS then lifted with 0.05% Trypsin (Life Technologies). The cells were harvested in growth media then spun (1K rpm, 3 minutes) and cryopreserved using Recovery Cell Culture Freezing Media (Gibco Technologies). Cells were stored in liquid nitrogen and thawed a day before the assay.
Prior to the day of the assay, stable M4_CHO cells were thawed and plated on 384 well black walled clear bottom TC treated plates (Greiner Cat #781091) at 12K cells/well using F12/HAM Media supplemented with 10% FBS (Life Technologies) and kept overnight in a humidified atmosphere (5% CO2) at 37° C. The next day, cells were loaded with 20 μL Ca^++ dye (BD Biosciences) using Loading Buffer (HBSS +Ca/+Mg, 20 mM HEPES, 2.5 mM Probenecid) and placed back in cell incubator for a minimum of 1 hour. After incubation, the dye was replaced with 45 μL Assay Buffer (HBSS −Ca/−Mg, 20 mM HEPES, 2.5 mM Probenecid) supplemented with 20 μM ATP (Sigma Aldrich) and kept at room temperature in the dark for 60 minutes before running on a cell imager. The FDSS 7000EX (Hamamatsu) was used to capture Ca^++ traces for a span of 3 minutes from cells treated with 11 point dose of compound in triplicate in order to generate dose response curves in agonist mode. All compounds were serially diluted in DMSO then prepared in Assay Buffer for Ca^++ flux studies. The dose response curves were generated from the average of triplicate wells obtained from each data point and used a non-linear regression of four parameter dose response algorithm. The Percent Activity (PA) was measured to EC100 of Carbachol.
(§3) If an Example was tested more than once in an assay, then the values below represent the geometric mean of the results from each independent experiment.

Assay [2] concerns the target T2, human cloned CHRM2 receptor (Homo sapiens, UniProt P08172).
T2 construct: expressed in transfected cells; host or cells: CHO-K1 (M2_CHO)
T2 sequence (P08172 1-466): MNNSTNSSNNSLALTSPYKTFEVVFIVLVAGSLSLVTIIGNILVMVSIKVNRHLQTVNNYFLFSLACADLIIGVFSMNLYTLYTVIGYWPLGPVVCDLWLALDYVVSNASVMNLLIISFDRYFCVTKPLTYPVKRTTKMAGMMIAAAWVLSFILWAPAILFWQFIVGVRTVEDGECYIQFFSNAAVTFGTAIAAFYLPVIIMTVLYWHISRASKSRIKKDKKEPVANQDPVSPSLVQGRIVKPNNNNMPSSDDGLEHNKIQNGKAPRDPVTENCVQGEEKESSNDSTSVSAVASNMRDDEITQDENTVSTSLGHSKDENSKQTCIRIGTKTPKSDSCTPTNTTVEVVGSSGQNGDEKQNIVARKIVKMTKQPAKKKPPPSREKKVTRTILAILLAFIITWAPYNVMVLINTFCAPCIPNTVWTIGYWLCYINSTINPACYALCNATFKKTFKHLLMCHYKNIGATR
The experiment in a line: CHRM2 Ca++ Flux Assay (M2_CHO cells, agonist mode). Type of assay: cell-based. As to conditions: M2 CHO cells; for EC50: agonist mode, geometric mean if tested more than once, read-out: M2 FDSS EC50; for M2 FDSS PA % / Emax: Percent Activity (PA) measured to EC100 of Carbachol; for Emax: read-out: M2 FDSS PA %. The procedure:
as §1
as §2, with “cloned CHRM2” for “cloned CHRM4”, “receptor (M2_CHO” for “receptor (M4_CHO”, “Serum, 1×Pen-Strep,” for “Serum, 1X Pen-Strep,”, “1×DPBS and” for “1×DPBS then”, “were” for “were harvested in growth media”, “and frozen” for “and cryopreserved”
Prior to the day of the assay, stable M2 CHO cells were thawed and plated on Greiner 384 well TC treated plate at a density of 12K cells/well and kept overnight in a humidified atmosphere (5% CO2) at 37° C. The following day, the cells were loaded with Ca^++ dye (BD Biosciences) using Loading Buffer (HBSS +Ca/+Mg, 20 mM HEPES, 2.5 mM Probenecid) and placed back in cell incubator for a minimum of 1 hour and maximum of 2 hours. After incubation, the dye was replaced with Assay Buffer (HBSS −Ca/−Mg, 20 mM HEPES, 2.5 mM Probenecid) supplemented with 20 μM ATP (Sigma Aldrich) and kept at room temperature for 60 minutes prior before running on cell imager. The FDSS 7000EX (Hamamatsu) was used to acquire Ca^++ traces from cells in response to compound treatment and the data was used to generate dose response curves in agonist mode. All compounds were serially diluted in DMSO then prepared in Assay Buffer for Ca^−+ flux studies. The dose response curves were generated from the average of triplicate wells obtained from each data point and used a non-linear regression of four parameter dose response algorithm. The Percent Activity (PA) was measured to EC100 of Carbachol.
as §3

By EC50 is commonly meant the concentration that produces a half-maximal response.

Structures are written as SMILES. A value given as a limit tells only on which side of the number the result lay.

As for `Fc1ccc([C@H]2CCOC2)c(C2CCN([C@@H]3COC4(C3)CN(c3nnco3)C4)CC2)c1` (single isomer, unassigned) [Example 3F, (S)-7-(4-(5-fluoro-2-((R)-tetrahydrofuran-3-yl)phenyl)piperidin-1-yl)-2-(1,3,4-oxadiazol-2-yl)-5-oxa-2-azaspiro[3.4]octane or (S)-7-(4-(5-fluoro-2-((S)-tetrahydrofuran-3-yl)phenyl)piperidin-1-yl)-2-(1,3,4-oxadiazol-2-yl)-5-oxa-2-azaspiro[3.4]octane], in assay [1], the “M4 FDSS PA %” value was found to be 80% and the concentration giving a half-maximal response (EC50) was 23 nM. In addition, in assay [2], the EC50 turned out to be 406 nM and the “M2 FDSS PA %” value was 49%.

Consider `COC(C)(C)CCOc1ccc(F)cc1C1CCN([C@@H]2COC3(C2)CN(c2nncs2)C3)CC1` [Example 5N, (S)-7-(4-(5-fluoro-2-(3-methoxy-3-methylbutoxy)phenyl)piperidin-1-yl)-2-(1,3,4-thiadiazol-2-yl)-5-oxa-2-azaspiro[3.4]octane], for which, in assay [1], the Emax worked out at 61% and the concentration giving a half-maximal response (EC50) came to 68 nM. For the same compound, in assay [2], the EC50 was above 25000 nM and the Emax was 38%.

With `Fc1ccc(OC2CCOCC2)c(C2CCN([C@@H]3COC4(C3)CN(c3nnco3)C4)CC2)c1` [Example 1G, (S)-7-(4-(5-fluoro-2-((tetrahydro-2H-pyran-4-yl)oxy)phenyl)piperidin-1-yl)-2-(1,3,4-oxadiazol-2-yl)-5-oxa-2-azaspiro[3.4]octane], in assay [1], the Emax is 84% and the EC50 came out at 31 nM. In addition, in assay [2], the EC50 came to 1250 nM and the Emax is 35%.

As for `CC1(C)C[C@@H](Oc2ccc(F)cc2C2CCN([C@@H]3COC4(C3)CN(c3nnco3)C4)CC2)CO1` (single isomer, unassigned) [Example 2N, (S)-7-(4-(2-(((R)-5,5-dimethyltetrahydrofuran-3-yl)oxy)-5-fluorophenyl)piperidin-1-yl)-2-(1,3,4-oxadiazol-2-yl)-5-oxa-2-azaspiro[3.4]octane or (S)-7-(4-(2-(((S)-5,5-dimethyltetrahydrofuran-3-yl)oxy)-5-fluorophenyl)piperidin-1-yl)-2-(1,3,4-oxadiazol-2-yl)-5-oxa-2-azaspiro[3.4]octane], in assay [1], the “M4 FDSS PA %” value amounted to 65% and the EC50 stood at 289 nM. In assay [2], the EC50 turned out to be 4240 nM and the “M2 FDSS PA %” value is given as 20%.

As for `Fc1cc(OC2COC2)c(C2CCN([C@@H]3COC4(C3)CN(c3nnco3)C4)CC2)cc1F` [Example 2FF, (S)-7-(4-(4,5-difluoro-2-(oxetan-3-yloxy)phenyl)piperidin-1-yl)-2-(1,3,4-oxadiazol-2-yl)-5-oxa-2-azaspiro[3.4]octane], the Emax is 66% in assay [1] and 28% in assay [2]. Further, the EC50 in assay [1] is 26 nM; in assay [2], 312 nM.

For the compound `CC(C)(O)COc1ccc(F)cc1C1CCN([C@@H]2COC3(C2)CN(c2nncs2)C3)CC1` [Example 5U, (S)-1-(2-(1-(2-(1,3,4-thiadiazol-2-yl)-5-oxa-2-azaspiro[3.4]octan-7-yl)piperidin-4-yl)-4-fluorophenoxy)-2-methylpropan-2-ol], in assay [1], the Emax is 67% and the EC50 is 238 nM. For the same compound, in assay [2], the EC50 was determined as 483 nM and the Emax came to 17%.

As to `Fc1ccc(O[C@@H]2CCOC2)c(C2CCN([C@@H]3COC4(C3)CN(c3nncs3)C4)CC2)c1` [Example 5H, (S)-7-(4-(5-fluoro-2-(((R)-tetrahydrofuran-3-yl)oxy)phenyl)piperidin-1-yl)-2-(1,3,4-thiadiazol-2-yl)-5-oxa-2-azaspiro[3.4]octane], in assay [1], the Emax came to 99% and the EC50 came to 15 nM. Further, in assay [2], the EC50 is 443 nM and the Emax was 40%.

`Fc1cc(F)c(OCC2COC2)c(C2CCN([C@@H]3COC4(C3)CN(c3nnco3)C4)CC2)c1` [Example 2DD, (S)-7-(4-(3,5-difluoro-2-(oxetan-3-ylmethoxy)phenyl)piperidin-1-yl)-2-(1,3,4-oxadiazol-2-yl)-5-oxa-2-azaspiro[3.4]octane]: the figures for the Emax in assay [1] and in assay [2] were 64% and 23%, respectively. For the same compound, the results for the EC50 in assay [1] and in assay [2] were 155 nM and 6760 nM, respectively.

On to `Fc1ccc(O[C@@H]2CCOC2)c(C2CCN([C@@H]3COC4(C3)CN(c3nnco3)C4)CC2)c1` [Example 1D, (S)-7-(4-(5-fluoro-2-(((R)-tetrahydrofuran-3-yl)oxy)phenyl)piperidin-1-yl)-2-(1,3,4-oxadiazol-2-yl)-5-oxa-2-azaspiro[3.4]octane], for which, in assay [1], the Emax is 80% and the EC50 is 21 nM. Besides, in assay [2], the EC50 worked out at 607 nM and the Emax amounted to 50%.

Take `Fc1ccc(OC[C@@H]2CCOC2)c(C2CCN([C@@H]3COC4(C3)CN(c3nncs3)C4)CC2)c1` [Example 5I, (S)-7-(4-(5-fluoro-2-(((R)-tetrahydrofuran-3-yl)methoxy)phenyl)piperidin-1-yl)-2-(1,3,4-thiadiazol-2-yl)-5-oxa-2-azaspiro[3.4]octane]: the Emax in assay [1] was determined as 71%; in assay [2] it was 43%. Further, the figures for the 50% effective concentration (EC50) in assay [1] and in assay [2] were 20 nM and 545 nM, respectively.
